Reference: publication PMC9227305, “Photoinduced Synthesis of Methylated Marine Cyclopeptide Galaxamide Analogs with Isoindolinone as Anticancer Agents” (Marine Drugs, 2022)
Read-outs that look alike come from different tables or passages of the source. *1 amine or outer side, *2 acyl side, *3 side chain or, on linkers, in order; H or OH if unused. Where a SMILES comes first, the peptide text is derived from it. [ ]: non-standard residue; d: D form. X1 = O=C1c2ccccc2[C@@](O)(CN(Cc2ccccc2)[*:1])N1CC(=O)[*:2]; NMeL = CN[C@@H](CC(C)C)C(=O)O

Legend:
Assay type in all cases: cell-based, human
[1] = test system: MDM2; test: Western blot of MDM2 level; conditions: HepG-2 cells, 48 h, increasing drug concentration
From the text: The p53 tumor suppressor plays a key role in preventing tumor development. In cancers retaining wild-type p53, the function of p53 can be suppressed by a variety of factors, and the murine double minute 2 (MDM2) protein is an important endogenous cellular inhibitor of p53 [29]. Therefore, inhibiting or blocking MDM2 protein should be an efficient strategy for the development of an antitumor agent. Actually, various MDM2 inhibitors have been studied and screened in recent years, including small molecules and polypeptides. […] Considering that the isoindolinone fragment is always present in the structure of MDM2 inhibitors and plays an important role in binding to the target protein, we tried to detect the MDM2 and p53 protein levels by Western blotting to assess the inhibiting ability of cyclic peptides containing isoindolinone fragments to MDM2 oncoprotein.
HepG-2 cells (5 × 10^6 cells) in the medium were treated with different concentrations of compounds for the required time and were washed twice with ice-cold PBS. The cells were scraped into cell lysate buffer containing phenylmethanesulfonyl fluoride (PMSF) and transferred to a 1.5 mL centrifuge tube, then lysed for 20 min at 4 °C. After centrifuging (12,000 r/min) for 20 min, the supernatant was collected and measured using the BCA Protein Assay Kit (Beyotime Biotechnology Co. Ltd., Shanghai, China)). […]

[2] = test system: HepG-2 cells; test: Cell cycle analysis by PI flow cytometry
Procedure: The four phases in the cell cycle, mitosis (M), gap 1 (G1), synthesis of DNA (S), and gap 2 (G2), can be analysized by a commonly used dye, propidium iodide (PI), which could intercalate into the major groove of double-stranded DNA and produce a highly fluorescent adduct that can be detected due to its broad emission around 600 nm. In this research, the drug-treated tumor cells were fixed overnight at 4 °C with 70% ice-cold ethanol and then treated with Rnase A/PI for 60 min at 37 °C and analyzed by flow cytometry.
HepG-2 cells were inoculated in 6-well plates and incubated for 24 h. Then, different concentrations of compound 8 were added to the wells and incubated for the required time. The collected cells in the experimental and control groups were digested with trypsin, centrifuged (1000 r/min, 5 min), resuspended in PBS and fixed by 70% ice ethanol (3 mL) at −20 °C for 24 h. Then, cells were washed twice with PBS and resuspended in PBS (0.9 mL), then treated with 100 µL RNase (100 µg/mL) for 30 min at 37 °C. After centrifuging the mixture for 5 min, the cells were resuspended in 50 µg/mL PBS and stained with 600 µL of PI solution (Beyotime Biotechnology, Shanghai, China) for 60 min at 4 °C to stain. Finally, the physical properties of individual cells at different mitotic stages were analyzed by flow cytometry (BD Accuri C6, BD Biosciences, Franklin Lakes, NJ, USA).

[3] = test system: HepG-2 cells; test: Mitochondrial membrane potential, rhodamine 123 flow cytometry; conditions: control 44.9%
Procedure: A classical fluorescent dye, rhodamine 123, is selectively sequestered by active mitochondrial respiration, but is washed out in cells with decreased MMP, so that the dye fluorescence intensity reflects the level of mitochondrial activity and can be applied in the monitoring of MMP [23].
In this study, we have studied the change of MMP of HepG-2 cells after treatment with different concentrations (0, 5.5, 11 and 22 µM within 48 h) and different time periods (12, 24 and 48 h with 11 µM) of compound 8. Cells were stained with rhodamine 123 and analyzed by flow cytometry. […] The aforementioned analysis clearly discloses that the cyclic peptides can affect the mitochondrial membrane potential and induce apoptosis, consistent with the findings in cell cycle analysis.
Cells in the logarithmic phase were seeded in 6-well plates and incubated for 24 h. After refreshing the culture medium, different concentrations of compound 8 (0, 5.5, 11, 22 μM) were added and co-incubated for 48 h. Meanwhile, the cells were also treated with 11 μM of compound 8 within different time periods (12 h, 24 h, 48 h). Then, the cells were collected by trypsin digestion and washed with phosphate-buffered solution. After centrifuging (1000 r/min) for 5 min, the obtained cell precipitate was suspended in PBS (100 µL); then, 100 µL of rhodamine 123 (1 µM) was added and incubated for 20 min. The cells were centrifuged, resuspended in 600 µL PBS, and analyzed by flow cytometry (maximum excitation wavelength 507 and maximum emission wavelength 529 nm). At least 10,000 events were counted in the experiment.

[4] = test system: HepG-2 cells; conditions: 48 h; for Q4 cells (viable, lower left): human
Procedure: HepG-2 cells were treated with 0, 5.5, 11 and 22 µM of compound 8 and incubated for 48 h, then double-stained carefully by membrane-linked protein Annexin-V-fluorescein isothiocyanate (FITC) and propidium iodide (PI) for flow cytometry analysis. Generally, in the early stages of apoptosis, phosphatidylserine flips from the inner cell membrane to the surface of the cell membrane. […] Propidium iodide (PI) is a nucleic acid dye that can only cross the membrane of advanced apoptosis and necrotic cells, reddening the nucleus. Therefore, when the drug-treated cells are double-stained by the two fluorescent dyes, early and late apoptosis and necrotic cells can be clearly distinguished.
HepG-2 cells were seeded in a 6-well plate (2 × 10^5 cells per well). The different concentrations of compound 8 (0, 5.5, 11, 22 μg/mL) were added and incubated for 48 h to induce apoptosis. The collected cells were centrifuged (2000 r/min) for 5 min and resuspended in PBS (200 μL). Then, 5 μL of Annexin V-FITC was added and incubated for 10 min at room temperature away from light. Finally, 5 µL propidium iodide solution was added and incubated for 5 min away from light. The fluorescence intensity was detected by flow cytometry and analyzed by utilizing FlowJo_V10 software (FlowJo X 10.0.7r2, BD Biosciences, Franklin Lakes, NJ, USA).

CC(C)C[C@@H]1NC(=O)CN2C(=O)c3ccccc3[C@@]2(O)CN(Cc2ccccc2)C(=O)[C@H](CC(C)C)NC(=O)[C@H](CC(C)C)N(C)C(=O)[C@H](CC(C)C)NC(=O)[C@H](CC(C)C)NC1=O [Compound 8, 3-Hydroxy-isoindolinone-cyclo-Gly-Leu-N-Me-Leu-Leu-Leu-Leu] (cyclo(LL[NMeL]L[X1]L))
level of MDM2 [1]: decreased gradually | 4N (G2/M phase) cells ([2]; 5.5 μM, 48 h): 12.0% | 4N (G2/M phase) cells ([2]; 11 μM, 12 h): 10.1% | 4N (G2/M phase) cells ([2]; 11 μM, 24 h): 17.4% | 4N (G2/M phase) cells ([2]; 11 μM, 48 h): 25.8% | 4N (G2/M phase) cells ([2]; 22 μM, 48 h): 33.0% | mean mitochondrial fluorescence intensity (rhodamine 123) ([3]; 5.5 µM, 48 h): 27.1% | mean mitochondrial fluorescence intensity (rhodamine 123) ([3]; 11 µM, 12 h): 29.4% | mean mitochondrial fluorescence intensity (rhodamine 123) ([3]; 11 µM, 24 h): 24.3% | mean mitochondrial fluorescence intensity (rhodamine 123) ([3]; 11 µM, 48 h): 20.2% | mean mitochondrial fluorescence intensity (rhodamine 123) ([3]; 22 µM, 48 h): 14.3% | Q3 cells (apoptosis cells) ([4]; 22 μM): 32.4% | Q4 cells (viable, lower left) ([4]; 5.5 µM): 86.2% | Q4 cells (viable, lower left) ([4]; 11 µM): 77.3% | Q4 cells (viable, lower left) ([4]; 22 µM): 65.4%
